Measurements taken from patent US7553864B2, “Compounds for the treatment of inflammatory disorders and microbial diseases” (Schering Corporation, priority 2005, dated 2009).

Test system: LpxC enzyme
Assay: LpxC enzyme assay (RapidFire high-throughput mass spectrometry)
Assay type: biochemical
Method in brief: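 0.2 nM enzyme with 1.0 μM UDP-3-O-(R-3-hydroxymyristoyl)-N-acetylglucosamine in 25 mM HEPES pH 7.3, 150 mM NaCl, 2.0 mM DTT, 0.01% BSA, 2% DMSO; 60 min at room temperature, quenched with HCl. Substrate and product quantified by RapidFire mass spectrometry; percent conversion gives percent inhibition versus DMSO control.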

[1] = concentration 0.10 (unit not given)
[2] = concentration 0.20 (unit not given)
[3] = concentration 0.39 (unit not given)
[4] = concentration 0.78 (unit not given)
[5] = concentration 1.56 (unit not given)
[6] = concentration 3.13 (unit not given)
[7] = concentration 6.25 (unit not given)
[8] = concentration 12.50 (unit not given)
[9] = concentration 25 (unit not given)
[10] = concentration 50 (unit not given)

Structure (SMILES)	LpxC enzyme assay rating (% inhibition at indicated concentrations) [1]	LpxC enzyme assay rating (% inhibition at indicated concentrations) [2]	LpxC enzyme assay rating (% inhibition at indicated concentrations) [3]	LpxC enzyme assay rating (% inhibition at indicated concentrations) [4]	LpxC enzyme assay rating (% inhibition at indicated concentrations) [5]	LpxC enzyme assay rating (% inhibition at indicated concentrations) [6]	LpxC enzyme assay rating (% inhibition at indicated concentrations) [7]	LpxC enzyme assay rating (% inhibition at indicated concentrations) [8]	LpxC enzyme assay rating (% inhibition at indicated concentrations) [9]	LpxC enzyme assay rating (% inhibition at indicated concentrations) [10]
O=C([C@H](O)[C@@H](O)C(=O)N1CCC(c2ccc(C(F)(F)F)cc2)CC1)N1CCCC1 [Compound 69]	C (less than 10% inhibition)	C (less than 10% inhibition)	C (less than 10% inhibition)	C (less than 10% inhibition)	C (less than 10% inhibition)	C (less than 10% inhibition)	C (less than 10% inhibition)	C (less than 10% inhibition)	C (less than 10% inhibition)	C (less than 10% inhibition)
CNC(=O)[C@H](O)[C@@H](O)C(=O)Nc1ccc(-n2cccn2)cc1 [Compound 41]	C (less than 10% inhibition)	C (less than 10% inhibition)	C (less than 10% inhibition)	C (less than 10% inhibition)	B (10-30% inhibition)	B (10-30% inhibition)	B (10-30% inhibition)	C (less than 10% inhibition)	B (10-30% inhibition)	B (10-30% inhibition)
O=C(Nc1ccc(Oc2ccccc2)cc1)[C@H](O)[C@@H](O)C(=O)N1CCCC1 [Compound 71]	B (10-30% inhibition)	C (less than 10% inhibition)	B (10-30% inhibition)	B (10-30% inhibition)	B (10-30% inhibition)	B (10-30% inhibition)	C (less than 10% inhibition)	C (less than 10% inhibition)	C (less than 10% inhibition)	C (less than 10% inhibition)
CNC(=O)[C@H](O)[C@@H](O)C(=O)N1CCN(c2cccc(-c3ccccc3)c2)CC1 [Compound 31]	C (less than 10% inhibition)	B (10-30% inhibition)	C (less than 10% inhibition)	B (10-30% inhibition)	B (10-30% inhibition)	B (10-30% inhibition)	C (less than 10% inhibition)	B (10-30% inhibition)	B (10-30% inhibition)	B (10-30% inhibition)
O=C(Nc1ccc(-n2cccn2)cc1)[C@H](O)[C@@H](O)C(=O)N1CCCC1 [Compound 75]	C (less than 10% inhibition)	C (less than 10% inhibition)	C (less than 10% inhibition)	B (10-30% inhibition)	C (less than 10% inhibition)	B (10-30% inhibition)	B (10-30% inhibition)	C (less than 10% inhibition)	C (less than 10% inhibition)	B (10-30% inhibition)
CN(C)C(=O)[C@H](O)[C@@H](O)C(=O)N(C)c1ccc(-c2ccc3ccccc3c2)cc1 [Compound 104]	C (less than 10% inhibition)	C (less than 10% inhibition)	C (less than 10% inhibition)	C (less than 10% inhibition)	C (less than 10% inhibition)	C (less than 10% inhibition)	C (less than 10% inhibition)	C (less than 10% inhibition)	B (10-30% inhibition)	
CN(C)C(=O)[C@H](O)[C@@H](O)C(=O)Nc1ccc(Oc2ccccc2)cc1 [Compound 53]	C (less than 10% inhibition)	C (less than 10% inhibition)	C (less than 10% inhibition)	B (10-30% inhibition)	C (less than 10% inhibition)	C (less than 10% inhibition)	C (less than 10% inhibition)	C (less than 10% inhibition)	C (less than 10% inhibition)	C (less than 10% inhibition)
O=C(NCCCCl)[C@H](O)[C@@H](O)C(=O)Nc1ccc(-n2cccn2)cc1 [Compound 62]	C (less than 10% inhibition)	C (less than 10% inhibition)	C (less than 10% inhibition)	C (less than 10% inhibition)	B (10-30% inhibition)	C (less than 10% inhibition)	B (10-30% inhibition)	B (10-30% inhibition)	B (10-30% inhibition)	C (less than 10% inhibition)
CN(C)CCOc1ccc(NC(=O)[C@H](O)[C@@H](O)C(=O)N2CCCC2)cc1 [Compound 73]	C (less than 10% inhibition)	B (10-30% inhibition)	C (less than 10% inhibition)	B (10-30% inhibition)	C (less than 10% inhibition)	C (less than 10% inhibition)	C (less than 10% inhibition)	C (less than 10% inhibition)	C (less than 10% inhibition)	C (less than 10% inhibition)
O=C(Nc1ccc(-c2cc[nH]n2)cc1)[C@H](O)[C@@H](O)C(=O)N1CCCC1 [Compound 76]	C (less than 10% inhibition)	C (less than 10% inhibition)	C (less than 10% inhibition)	C (less than 10% inhibition)	B (10-30% inhibition)	C (less than 10% inhibition)	B (10-30% inhibition)	C (less than 10% inhibition)	C (less than 10% inhibition)	C (less than 10% inhibition)
CNC(=O)[C@H](O)[C@@H](O)C(=O)N1CCC(c2ccc(C(F)(F)F)cc2)CC1 [Compound 35]	C (less than 10% inhibition)	C (less than 10% inhibition)	C (less than 10% inhibition)	C (less than 10% inhibition)	B (10-30% inhibition)	C (less than 10% inhibition)	C (less than 10% inhibition)	C (less than 10% inhibition)	C (less than 10% inhibition)	B (10-30% inhibition)
C[C@H](O)[C@@H](NC(=O)[C@H](O)[C@@H](O)C(=O)N(C)C)C(=O)Nc1ccc(C#Cc2ccccc2)cc1 [Compound 77]	C (less than 10% inhibition)	C (less than 10% inhibition)	C (less than 10% inhibition)	C (less than 10% inhibition)	C (less than 10% inhibition)	C (less than 10% inhibition)	C (less than 10% inhibition)	B (10-30% inhibition)	A (greater than 30% inhibition)	
